According to patent US10822338B2, “Substituted aminoquinazoline compounds as A2A antagonist” (Merck Sharp & Dohme Corp., priority 2015, dated 2020):

Target: human A2A receptor (Homo sapiens (Human), UniProt P29274)
Experiment: A2A competition binding assay using Scintillation Proximity technology
Conditions: 0.5 nM tritiated radioligand, Cheng-Prusoff
Experimental: Binding affinities of compounds of the invention for the human A2A receptor were determined in a competition binding assay using Scintillation Proximity technology. Thus, 1^μg (^ denotes 1 μg of membrane/well), or preferably 0.25 μg of membranes from HEK293 cells expressing the human A2a receptor were incubated with a compound of the invention at concentrations ranging from 3000 nM to 0.15 nM in a reaction mixture containing also 0.5 nM of a tritiated form of 5-amino-7-[2-phenethyl]-2-(furan-2-yl)-7H-pyrazolo[4,3-e][1,2,4]triazolo[1,5-c]pyrimidine (the tritiated compound) and 25 μg of wheat germ agglutin-coated yttrium silicate SPA beads for one hour at room temperature with agitation. The beads were then allowed to settle to the bottom of the wells for 1 hr, after which the membrane-associated radioactivity was determined by scintillation counting in a TopCount microplate reader. Ki values were determined using the Cheng-Prusoff equation.
HEK293 cells expressing the human, rat, dog or monkey adenosine 2a receptor (Purchased from Perkin-Elmer # RBHA2AM400UA).
The Tritiated compound was prepared in-house by MRL Radiochemistry according to published methods.
Wheat germ agglutinin-coated yttrium silicate SPA beads (GE Healthcare #RPNQ0023). Dilute to 25 mg/mL in assay buffer.
Assay Buffer was prepared in house: Dulbecco's calcium and magnesium free phosphate buffered saline+10 mM MgCl2
Adenosine deaminase from calf intestine, 10 mg/2 mL (Roche #10 102 105 001).
A2A antagonist standard (9-chloro-1-(2-furanyl)-[1,2,4]triazolo[1,5-c]quinazolin-5-amine from Tocris Bioscience)
Make eight 1:3 serial dilutions in 100% DMSO from a 3 mM compound stock
Transfer 50 nL of compound into a 384-well OptiPlate (Perkin Elmer).
Typically, final concentrations of compound used in the assay ranged from 3000 nM to 0.152 nM.
Dilute a solution of the Tritiated compound to 1.25 nM in assay buffer. This a 2.5× solution. The final concentration in the assay is 0.5 nM. Calculate the concentration by counting two 5 μL aliquots.
Use *1 ug or preferrably 0.25 ug of membrane/well. Dilute membranes to 9.7 μg/ml in assay buffer. Treat with 20 ug/ml adenosine deaminase (ADA) for 15 minutes at room temperature to degrade endogenous adenosine.
Use 25 μg/well wheat germ agglutinin-coated yttrium silicate SPA beads.
Mix ADA-treated membranes and SPA beads together for 30 min prior to assay.
To the Perkin-Elmer Optiplate-384 containing the compound titration add 20 μL of 2.5× solution of the Tritiated compound and 30 μL of the membrane-bead mixture. Incubate for one hour at room temperature with agitation.
Include total binding (assay buffer+1% DMSO) and non-specific binding (CGS15943, 1 μM) wells.
Allow the beads to settle for one hour.
A curve fitting program (i.e., Prism, Activity Base, Chemcart) is used to determine the EC50. The Ki value is calculated using the Cheng-Prusoff equation. Ki=EC50/(1+(radioligand concentration/Kd)) Counting and Calculations
Counting and calculations were performed as described within the “A2A Activity Binding of Compounds of the Invention” section. Using the foregoing methods, the following results were obtained using compounds of the invention described herein. Each example compound tested is reported in the following format: Example number: A2A Ki (nM) selectivity.

[1] = 0.25 μg of membranes from HEK293 cells expressing the human A2a receptor per well
[2] = values marked ^: 1 μg of membrane/well (HEK293 cells expressing the human A2a receptor)

Sequence of human A2A receptor (P29274 whole entry): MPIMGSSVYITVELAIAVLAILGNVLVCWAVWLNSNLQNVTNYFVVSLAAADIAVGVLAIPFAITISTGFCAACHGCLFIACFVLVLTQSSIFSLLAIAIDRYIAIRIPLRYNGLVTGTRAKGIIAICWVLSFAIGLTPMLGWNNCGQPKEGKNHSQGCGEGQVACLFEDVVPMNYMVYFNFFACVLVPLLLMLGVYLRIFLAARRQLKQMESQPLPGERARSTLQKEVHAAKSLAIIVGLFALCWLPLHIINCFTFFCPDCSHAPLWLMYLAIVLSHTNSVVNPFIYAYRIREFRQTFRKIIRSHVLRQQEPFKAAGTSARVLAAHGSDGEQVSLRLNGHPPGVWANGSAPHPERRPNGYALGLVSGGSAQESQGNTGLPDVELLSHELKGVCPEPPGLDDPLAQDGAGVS

SMILES | Ki [1] [nM] | Ki [2] [nM]
COc1cccc2c1nc(N)n1nc([C@@H]3CCCN(CCC(F)(F)F)C3)nc21 [Example 1, (R)-7-methoxy-2-(1-(3,3,3-trifluoropropyl)piperidin-3-yl)-[1,2,4]triazolo[1,5-d]quinazolin-5-amine] | 0.6 | –
COc1cccc2c1nc(N)n1nc([C@@H]3CCCN(CC(C(F)(F)F)C(F)(F)F)C3)nc21 [Example 2, (R)-7-methoxy-2-(1-(3,3,3-trifluoro-2-(trifluoromethyl)propyl)piperidin-3-yl)-[1,2,4]triazolo[1,5-c]quinazolin-5-amine] | 0.3 | –
COc1cccc2c1nc(N)n1nc([C@@H]3CCCN(CC(F)F)C3)nc21 [Example 3, (R)-2-(1-(2,2-difluoroethyl)piperidin-3-yl)-7-methoxy-[1,2,4]triazolo[1,5-c]quinazolin-5-amine] | 0.4 | –
COc1cccc2c1nc(N)n1nc([C@@H]3CCCN(CCN(C)C)C3)nc21 [Example 4, (R)-2-(1-(2-(dimethylamino)ethyl)piperidin-3-yl)-7-methoxy-[1,2,4]triazolo[1,5-c]quinazolin-5-amine] | 5.4 | –
CCN1CCC[C@@H](c2nc3c4cccc(OC)c4nc(N)n3n2)C1 [Example 5, (R)-2-(1-ethylpiperidin-3-yl)-7-methoxy-[1,2,4]triazolo[1,5-c]quinazolin-5-amine] | – | 34
COCCN1CCC[C@@H](c2nc3c4cccc(OC)c4nc(N)n3n2)C1 [Example 6, (R)-7-methoxy-2-(1-(2-methoxyethyl)piperidin-3-yl)-[1,2,4]triazolo[1,5-c]quinazolin-5-amine] | 3.1 | –
CCCCN1CCC[C@@H](c2nc3c4cccc(OC)c4nc(N)n3n2)C1 [Example 7, (R)-2-(1-butylpiperidin-3-yl)-7-methoxy-[1,2,4]triazolo[1,5-c]quinazolin-5-amine] | – | 29
COc1cccc2c1nc(N)n1nc([C@@H]3CCCN(CC(C)C)C3)nc21 [Example 8, (R)-2-(1-isobutylpiperidin-3-yl)-7-methoxy-[1,2,4]triazolo[1,5-c]quinazolin-5-amine] | – | 45
C#CC(C)(C)N1CCC[C@@H](c2nc3c4cccc(OC)c4nc(N)n3n2)C1 [Example 9, (R)-7-methoxy-2-(1-(2-methylbut-3-yn-2-yl)piperidin-3-yl)-[1,2,4]triazolo[1,5-c]quinazolin-5-amine] | – | 20
COc1cccc2c1nc(N)n1nc([C@@H]3CCCN(CC4(C)CC4)C3)nc21 [Example 10, (R)-7-methoxy-2-(1-((1-methylcyclopropyl)methyl)piperidin-3-yl)-[1,2,4]triazolo[1,5-c]quinazolin-5-amine] | 20 | –
COc1cccc2c1nc(N)n1nc([C@@H]3CCCN(CCC(F)(F)C(F)(F)F)C3)nc21 [Example 11, (R)-7-methoxy-2-(1-(3,3,4,4,4-pentafluorobutyl)piperidin-3-yl)-[1,2,4]triazolo[1,5-c]quinazolin-5-amine] | 0.4 | –
COc1cccc2c1nc(N)n1nc([C@H]3CCCN(CCC(F)(F)F)C3)nc21 [Example 12, (S)-7-methoxy-2-(1-(3,3,3-trifluoropropyl)piperidin-3-yl)-[1,2,4]triazolo[1,5-c]quinazolin-5-amine] | 14 | –
COc1cccc2c1nc(N)n1nc([C@@H]3CCCNC3)nc21 [Example 13, (R)-7-methoxy-2-(piperidin-3-yl)-[1,2,4]triazolo[1,5-c]quinazolin-5-amine] | 93 | –
COc1cccc2c1nc(N)n1nc([C@@H]3CCCN(CCC4CC4)C3)nc21 [Example 14, (R)-2-(1-(2-cyclopropylethyl)piperidin-3-yl)-7-methoxy-[1,2,4]triazol[1,5-c]quinazolin-5-amine] | 6.9 | –
COc1cccc2c1nc(N)n1nc([C@@H]3CCCN(CCN4CCOCC4)C3)nc21 [Example 15, (R)-7-methoxy-2-(1-(2-morpholinoethyl)piperidin-3-yl)-[1,2,4]triazolo[1,5-c]quinazolin-5-amine] | 1.5 | –
COc1cccc2c1nc(N)n1nc([C@@H]3CCCN(CCCC(F)(F)F)C3)nc21 [Example 16, (R)-7-methoxy-2-(1-(4,4,4-trifluorobutyl)piperidin-3-yl)-[1,2,4]triazolo[1,5-c]quinazolin-5-amine] | – | 7.6
COc1cccc2c1nc(N)n1nc([C@@H]3CCCN(CC4CC(F)(F)C4)C3)nc21 [Example 17, (R)-2-(1-((3,3-difluorocyclobutyl)methyl)piperidin-3-yl)-7-methoxy-[1,2,4]triazolo[1,5-c]quinazolin-5-amine] | 0.7 | –
COc1cccc2c1nc(N)n1nc([C@@H]3CCCN(CC4(C)COC4)C3)nc21 [Example 18, (R)-7-methoxy-2-(1-((3-methyloxetan-3-yl)methyl)piperidin-3-yl)-[1,2,4]triazolo[1,5-d]quinazolin-5-amine] | 3 | –
COc1cccc2c1nc(N)n1nc([C@@H]3CCCN(c4nnc(C)s4)C3)nc21 [Example 19, (R)-7-methoxy-2-(1-(5-methyl-1,3,4-thiadiazol-2-yl)piperidin-3-yl)-[1,2,4]triazolo[1,5-c]quinazolin-5-amine] | – | 2

Results, then the molecule that gave them:

Ki [1] [nM] | Ki [2] [nM] | SMILES
– | 1.9 | COc1cccc2c1nc(N)n1nc([C@@H]3CCCN(c4nncs4)C3)nc21 [Example 20, (R)-2-(1-(1,3,4-thiadiazol-2-yl)piperidin-3-yl)-7-methoxy-[1,2,4]triazolo[1,5-c]quinazolin-5-amine]
– | 3.2 | COc1cccc2c1nc(N)n1nc([C@@H]3CCCN(c4ncns4)C3)nc21 [Example 21, (R)-2-(1-(1,2,4-thiadiazol-5-yl)piperidin-3-yl)-7-methoxy-[1,2,4]triazolo[1,5-c]quinazolin-5-amine]
– | 0.8 | COc1cccc2c1nc(N)n1nc([C@@H]3CCCN(c4ncc(C)s4)C3)nc21 [Example 22, (R)-7-methoxy-2-(1-(5-methylthiazol-2-yl)piperidin-3-yl)-[1,2,4]triazolo[1,5-c]quinazolin-5-amine]
0.8 | – | COc1cccc2c1nc(N)n1nc([C@@H]3CCCN(CC(F)(F)F)C3)nc21 [Example 23, (R)-7-methoxy-2-(1-(2,2,2-trifluoroethyl)piperidin-3-yl)-[1,2,4]triazolo[1,5-c]quinazolin-5-amine]
1.2 | – | Nc1nc2c(OC(F)F)cccc2c2nc([C@@H]3CCCN(CC(F)F)C3)nn12 [Example 25, (R)-2-(1-(2,2-difluoroethyl)piperidin-3-yl)-7-(difluoromethoxy)-[1,2,4]triazolo[1,5-c]quinazolin-5-amine]
1.3 | – | Nc1nc2cc(Cl)ccc2c2nc([C@@H]3CCCN(CC(F)F)C3)nn12 [Example 26, (R)-8-chloro-2-(1-(2,2-difluoroethyl)piperidin-3-yl)-[1,2,4]triazolo[1,5-c]quinazolin-5-amine]
11 | – | Nc1nc2ccccc2c2nc([C@@H]3CCCN(CC(F)F)C3)nn12 [Example 28, (R)-2-(1-(2,2-difluoroethyl)piperidin-3-yl)-[1,2,4]triazolo[1,5-c]quinazolin-5-amine]
33 | – | CCC(C)(C)N1CCC[C@@H](c2nc3c4cccc(OC)c4nc(N)n3n2)C1 [Example 31, (R)-7-methoxy-2-(1-(tert-pentyl)piperidin-3-yl)-[1,2,4]triazolo[1,5-c]quinazolin-5-amine]
– | 1.2 | COc1cccc2c1nc(N)n1nc([C@@H]3CCCN(S(=O)(=O)c4ccccc4)C3)nc21 [Example 36, (R)-7-methoxy-2-(1-(phenylsulfonyl)piperidin-3-yl)-[1,2,4]triazolo[1,5-c]quinazolin-5-amine]
